# Source: BindingDB's records for doi:10.1021/jm00018a006 (University of Arizona, 1995)
# *1 amine or outer side, *2 acyl side, *3 side chain or, on linkers, in order; H or OH if unused. Where a SMILES comes first, the peptide text is derived from it. Side-chain parts run from the residue outwards. [ ]: non-standard residue; d: D form. X4 = CC(C)C[C@@H](CN([C@@H](CCCN=C(N)N)C(=O)[*:2])[*:1])N[*:3]
# Target: Delta-type opioid receptor (Cavia porcellus)
# Test: Binding affinity against delta opioid receptor of Guinea pig brain homogenate using [3H]c[D-Pen2,p-Cl-Phe4,D-Pen5]enkephalin
row,Compound,IC50
1,CC[C@H](C)[C@H](NC(=O)[C@H](CCCN=C(N)N)NC[C@H](CCCCN)NC(=O)[C@H](CC(C)C)NC(=O)[C@H](Cc1ccccc1)NC(=O)CNC(=O)CNC(=O)[C@@H](N)Cc1ccc(O)cc1)C(=O)N[C@@H](CCCN=C(N)N)C(=O)N1CCC[C@H]1C(=O)N[C@@H](CCCCN)C(N)=O,53 nM
2,CC[C@H](C)[C@H](NC(=O)[C@H](CCCN=C(N)N)NC(=O)[C@H](CCCN=C(N)N)NC(=O)[C@H](CC(C)C)NC(=O)[C@H](Cc1ccccc1)NC(=O)CNC(=O)CNC[C@@H](N)Cc1ccc(O)cc1)C(=O)N[C@@H](CCCN=C(N)N)C(=O)N1CCC[C@H]1C(=O)N[C@@H](CCCCN)C(N)=O,198 nM
3,CC[C@H](C)[C@H](NC(=O)[C@H](CCCN=C(N)N)NC(=O)[C@H](CCCN=C(N)N)NC[C@H](CC(C)C)NC(=O)[C@H](Cc1ccccc1)NC(=O)CNC(=O)CNC(=O)[C@@H](N)Cc1ccc(O)cc1)C(=O)N[C@@H](CCCN=C(N)N)C(=O)N1CCC[C@H]1C(=O)N[C@@H](CCCCN)C(N)=O (H-[X4]([Phe-Gly-Gly-Tyr])RIRPK-NH2),32 nM
